Measured values: US20220096449A1, “METHOD OF TREATMENT WITH TRADIPITANT” (Vanda Pharmaceuticals Inc., priority 2018, published 2022)
Marks after values point to notes of the source that are not given here.

Test system: apomorphine-induced emesis
Test: Apomorphine emetic challenge in beagle dogs
Format: in vivo, beagle dog
Details: 3.0 mg/kg oral, apomorphine 0.1 mg/kg iv 2 hours later, 5 dogs
Method: Over the five (5) weeks of the study, each animal receives each of the treatments, but only one per week. The purpose of this study is to determine if tradipitant suppresses apomorphine-induced emesis.
All animals are dosed over a period of five (5) weeks, with each dog receiving one of five different treatments on each day of dosing.
All dogs are fasted overnight prior to each treatment day and then fed approximately one (1) hour after oral dosing (approximately one (1) hour prior to administration of apomorphine). Individual doses are adjusted weekly for changes in body weight.
The dose regimen consists of a 5×5 Latin square design, in which each subject receives 1 dose or dose combination per week (6 day washout) as shown in Table 3 below.

C[C@@H](O[C@H]1OCCN(Cc2n[nH]c(=O)[nH]2)[C@H]1c1ccc(F)cc1)c1cc(C(F)(F)F)cc(C(F)(F)F)c1 [Aprepitant, reference compound]
Total No. Emetic Episodes: 1**
